Test results: ChEMBL document CHEMBL2150850, “Recent advances in the development of selective human MAO-B inhibitors: (hetero)arylidene-(4-substituted-thiazol-2-yl)hydrazines” (Eur J Med Chem, 2012); call rule not given here

What was measured:
[1] = target: T1, Amine oxidase [flavin-containing] A (Homo sapiens, UniProt P21397); test: Inhibition of human MAO-A expressed in baculovirus infected BTI-TN-5B1-4 cells using p-tyramine as substrate incubated for 15 mins prior to substrate addition measured for 15 mins by Amplex red assay
T1 sequence (P21397 whole entry): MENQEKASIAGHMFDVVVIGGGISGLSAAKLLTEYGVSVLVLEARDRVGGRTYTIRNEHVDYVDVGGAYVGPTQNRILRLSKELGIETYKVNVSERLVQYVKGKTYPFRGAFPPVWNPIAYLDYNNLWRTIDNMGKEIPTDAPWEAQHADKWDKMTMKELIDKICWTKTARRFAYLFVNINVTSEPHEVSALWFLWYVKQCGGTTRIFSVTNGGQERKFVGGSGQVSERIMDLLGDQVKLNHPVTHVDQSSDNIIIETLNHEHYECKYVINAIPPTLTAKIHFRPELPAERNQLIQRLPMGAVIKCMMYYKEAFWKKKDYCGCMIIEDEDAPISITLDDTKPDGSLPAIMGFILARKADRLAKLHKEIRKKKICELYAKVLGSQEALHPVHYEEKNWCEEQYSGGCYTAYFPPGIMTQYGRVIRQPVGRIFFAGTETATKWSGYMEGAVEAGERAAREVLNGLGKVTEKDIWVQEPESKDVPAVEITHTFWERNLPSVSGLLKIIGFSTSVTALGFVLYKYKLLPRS

Homo sapiens = organism: Homo sapiens; test: Selectivity ratio of IC50 for human MAO-A to IC50 for human MAO-B
[2] = target: T2, Amine oxidase [flavin-containing] B (Homo sapiens, UniProt P27338); test: Inhibition of human MAO-B expressed in baculovirus infected BTI-TN-5B1-4 cells using p-tyramine as substrate at 100 uM incubated for 15 mins prior to substrate addition measured for 15 mins by Amplex red assay; settings: BTI-TN-5B1-4, human, 0.25 h
T2 sequence (P27338 whole entry): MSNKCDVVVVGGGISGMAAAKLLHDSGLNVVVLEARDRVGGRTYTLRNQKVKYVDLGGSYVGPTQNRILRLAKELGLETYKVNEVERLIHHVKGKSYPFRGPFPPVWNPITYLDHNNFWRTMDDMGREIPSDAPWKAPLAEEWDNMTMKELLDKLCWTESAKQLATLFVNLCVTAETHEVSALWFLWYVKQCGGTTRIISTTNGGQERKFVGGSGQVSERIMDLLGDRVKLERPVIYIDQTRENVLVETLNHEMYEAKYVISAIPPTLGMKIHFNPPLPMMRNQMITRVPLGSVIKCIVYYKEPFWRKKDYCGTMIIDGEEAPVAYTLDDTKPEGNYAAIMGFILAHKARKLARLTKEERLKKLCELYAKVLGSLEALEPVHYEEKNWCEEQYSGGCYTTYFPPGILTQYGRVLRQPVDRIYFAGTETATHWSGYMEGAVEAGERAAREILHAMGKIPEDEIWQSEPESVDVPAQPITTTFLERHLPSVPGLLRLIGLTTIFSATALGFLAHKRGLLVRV

[3] = target: T1, Amine oxidase [flavin-containing] A; test: Inhibition of human MAO-A expressed in baculovirus infected BTI-TN-5B1-4 cells using p-tyramine as substrate at 100 uM incubated for 15 mins prior to substrate addition measured for 15 mins by Amplex red assay
[4] = target: T2, Amine oxidase [flavin-containing] B; test: Reversible inhibition of human MAO-B expressed in baculovirus infected BTI-TN-5B1-4 cells using p-tyramine as substrate at 70 uM incubated for 30 mins prior to substrate addition followed by 100 fold dilution measured for 15 mins by Amplex red assay; settings: bti-tn-5b1-4, 0.25 h
[5] = target: T2, Amine oxidase [flavin-containing] B; test: biochemical; assay type: cell-based, BTI-TN-5B1-4
Description: Inhibition of human MAO-B expressed in baculovirus infected BTI-TN-5B1-4 cells using p-tyramine as substrate incubated for 15 mins prior to substrate addition measured for 15 mins by Amplex red assay

[6] = target: T2, Amine oxidase [flavin-containing] B; test: Reversible inhibition of human MAO-B expressed in baculovirus infected BTI-TN-5B1-4 cells using p-tyramine as substrate at 20 nM incubated for 30 mins prior to substrate addition followed by 100 fold dilution measured for 15 mins by Amplex red assay; settings: bti-tn-5b1-4, 0.25 h, 0.02 µM

SMILES | IC50 [1] [µM] | Ratio IC50 (Homo sapiens) | inhibition at 100 µM [2] [%] | inhibition (INH) ([3]; human, bti-tn-5b1-4, 0.25 h, 100 µM) | inhibition (INH) [4] | IC50 [5] [µM] | inhibition at 100 µM ([3]; BTI-TN-5B1-4, human, 0.25 h) [%] | inhibition (INH) [6]
C/C(=N/Nc1nc(-c2ccc(F)cc2F)cs1)c1ccccn1 | 3.04 | < 0.03 | 40 | – | – | – | – | –
N#Cc1ccc(-c2csc(N/N=C\c3ccncc3)n2)cc1 | – | > 15 | – | Not Active | Active | 6.75 | – | –
C/C(=N/Nc1nc(-c2ccc(F)cc2)cs1)c1ccccc1 | 4.18 | 12 | – | – | – | 0.351 | – | –

More lines, now with the values ahead:

IC50 [1] [µM] | Ratio IC50 (Homo sapiens) | inhibition at 100 µM [2] [%] | inhibition (INH) ([3]; human, bti-tn-5b1-4, 0.25 h, 100 µM) | inhibition (INH) [4] | IC50 [5] [µM] | inhibition at 100 µM ([3]; BTI-TN-5B1-4, human, 0.25 h) [%] | inhibition (INH) [6] | SMILES
– | > 58800 | – | – | – | 0.0017 | 40 | Active | C/C(=N/Nc1nc(-c2ccc(F)cc2)cs1)c1cccnc1
41.7 | 1720 | – | – | – | 0.0243 | – | – | C/C(=N/Nc1nc(-c2ccc(F)cc2)cs1)c1ccccn1
5.67 | 18 | – | – | – | 0.32 | – | – | C/C(=N/Nc1nc(-c2ccc(F)cc2)cs1)c1ccco1
